According to ChEMBL document CHEMBL1158360, “Large ring 1,3-bridged 2-azetidinones: experimental and theoretical studies” (Eur J Med Chem, 2009):
Active and inactive are the calls of the source. No cut-off for these calls is given here.

Tests used:
[1] = test system: Enterococcus faecium; test: Residual activity of Enterococcus faecium PBP5fm at 100 uM after 16 hrs
[2] = target: T1, Penicillin-binding protein 2x (Streptococcus pneumoniae serotype 4 (strain ATCC BAA-334 / TIGR4)) (UniProt P14677); test: Residual activity of Streptococcus pneumoniae 5204 PBP2x at 100 uM after 16 hrs
T1 sequence (whole entry): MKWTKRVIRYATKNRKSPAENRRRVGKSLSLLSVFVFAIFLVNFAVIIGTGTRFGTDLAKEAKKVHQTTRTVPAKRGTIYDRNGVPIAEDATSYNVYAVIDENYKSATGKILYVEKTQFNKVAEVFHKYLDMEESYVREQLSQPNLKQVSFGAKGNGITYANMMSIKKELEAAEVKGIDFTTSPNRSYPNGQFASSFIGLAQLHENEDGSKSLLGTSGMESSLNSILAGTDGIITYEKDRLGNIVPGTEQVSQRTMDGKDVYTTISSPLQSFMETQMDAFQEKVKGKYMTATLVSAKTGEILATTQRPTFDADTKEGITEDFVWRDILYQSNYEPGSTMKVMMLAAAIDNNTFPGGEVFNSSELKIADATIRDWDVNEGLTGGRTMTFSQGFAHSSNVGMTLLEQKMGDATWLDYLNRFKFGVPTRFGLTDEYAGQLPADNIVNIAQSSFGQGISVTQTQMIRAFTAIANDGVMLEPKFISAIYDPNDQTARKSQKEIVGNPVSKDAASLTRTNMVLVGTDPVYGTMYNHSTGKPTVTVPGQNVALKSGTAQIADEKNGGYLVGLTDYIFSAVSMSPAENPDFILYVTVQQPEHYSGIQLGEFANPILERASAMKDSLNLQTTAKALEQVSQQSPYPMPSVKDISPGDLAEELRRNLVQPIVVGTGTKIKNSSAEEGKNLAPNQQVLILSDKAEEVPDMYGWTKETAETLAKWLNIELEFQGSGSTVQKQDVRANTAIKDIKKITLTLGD

[3] = target: T2, MecA (Staphylococcus aureus) (UniProt Q7DHH4); test: Inhibition of methicillin-resistant Staphylococcus aureus ATCC […] PBP2a assessed as residual activity at 100 uM after 16 hrs; settings: values are per cent of control
T2 sequence (whole entry): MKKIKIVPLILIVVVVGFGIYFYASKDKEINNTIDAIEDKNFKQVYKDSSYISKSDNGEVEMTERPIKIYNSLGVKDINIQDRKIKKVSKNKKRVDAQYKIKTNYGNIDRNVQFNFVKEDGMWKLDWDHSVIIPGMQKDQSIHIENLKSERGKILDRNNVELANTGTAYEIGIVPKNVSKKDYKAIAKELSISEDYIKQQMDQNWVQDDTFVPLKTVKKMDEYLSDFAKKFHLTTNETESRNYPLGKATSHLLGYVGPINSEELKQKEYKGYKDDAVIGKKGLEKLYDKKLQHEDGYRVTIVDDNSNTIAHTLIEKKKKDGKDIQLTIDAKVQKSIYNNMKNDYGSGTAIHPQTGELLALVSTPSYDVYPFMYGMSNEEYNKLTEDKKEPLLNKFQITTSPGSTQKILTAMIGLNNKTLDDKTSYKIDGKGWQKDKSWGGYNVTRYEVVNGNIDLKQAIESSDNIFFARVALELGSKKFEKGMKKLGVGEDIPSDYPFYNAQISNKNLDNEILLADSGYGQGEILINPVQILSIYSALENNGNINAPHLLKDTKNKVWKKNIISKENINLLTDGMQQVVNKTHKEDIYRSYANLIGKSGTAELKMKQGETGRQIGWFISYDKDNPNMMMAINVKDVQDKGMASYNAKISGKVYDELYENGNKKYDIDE

[4] = Chemical stability assessed as hydrolysis half life; assay type: physicochemical
[5] = Inhibition of beta-lactamase TEM1 at 100 uM
[6] = target: D-alanyl-D-alanine carboxypeptidase (Actinomadura sp. R39) (UniProt P39045); test: Residual activity of Actinomadura R39 DD-peptidase at 100 uM after 16 hrs
[7] = target: Chymotrypsin-like elastase family member 1 (Sus scrofa) (UniProt P00772); test: Inhibition of pig pancreatic elastase assessed as formation of p-nitroaniline at 100 uM
Sequence of Chymotrypsin-like elastase family member 1 (Sus scrofa) (P00772 whole entry): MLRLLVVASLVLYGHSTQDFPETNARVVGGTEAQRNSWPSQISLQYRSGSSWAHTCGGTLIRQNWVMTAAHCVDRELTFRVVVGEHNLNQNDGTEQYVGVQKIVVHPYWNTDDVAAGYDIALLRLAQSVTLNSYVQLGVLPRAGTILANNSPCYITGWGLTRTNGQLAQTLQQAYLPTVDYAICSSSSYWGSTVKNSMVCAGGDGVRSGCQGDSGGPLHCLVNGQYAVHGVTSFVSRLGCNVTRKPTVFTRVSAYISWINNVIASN

[8] = target: Chymotrypsin-like elastase family member 1 (Sus scrofa) (UniProt P00772); test: Reversible inhibition of pig pancreatic elastase at 1 to 100 uM preincubated for 60 mins before addition of N-succinyl-L-alanyl-Lalanyl- L-alanyl-p-nitroanilide by incubation/dilution method
[9] = target: Chymotrypsin-like elastase family member 1 (Sus scrofa) (UniProt P00772); test: Inhibition of pig pancreatic elastase assessed as formation of p-nitroaniline at 1 uM
[10] = target: Chymotrypsin-like elastase family member 1 (Sus scrofa) (UniProt P00772); test: Reversible inhibition of pig pancreatic elastase at 1 to 100 uM preincubated for 20 mins before addition of N-succinyl-L-alanyl-Lalanyl- L-alanyl-p-nitroanilide by incubation/dilution method
[11] = target: Chymotrypsin-like elastase family member 1 (Sus scrofa) (UniProt P00772); test: Reversible inhibition of pig pancreatic elastase at 1 to 100 uM preincubated for 40 mins before addition of N-succinyl-L-alanyl-Lalanyl- L-alanyl-p-nitroanilide by incubation/dilution method

Row | Compound | residual activity [1] [%] | residual activity [2] [%] | residual activity [3] [%] | half-life [4] [h] | inhibition [5] | residual activity [6] [%] | inhibition [7] | inhibition [8] | inhibition [9] | inhibition [10] | inhibition [11]
1 | CC1(C)S[C@@H]2[C@H](NC(=O)Cc3ccccc3)C(=O)N2[C@H]1C(=O)O | 10 | < 5 | 13 | – | – | – | – | – | – | – | –
2 | CC(=O)O[C@@H]1[C@@H]2C(=O)N1C(=O)CC/C=C/CCC(=O)O[C@@H]2C | 104 | 116 | 86 | 6 | inactive | 96 | inactive | – | – | – | –
3 | CC(=O)O[C@@H]1[C@@H]2C(=O)N1C(=O)CCCCCCC(=O)O[C@@H]2C | 113 | 99 | 94 | 4 | inactive | 113 | inactive | – | – | – | –
4 | C=CCCC(=O)O[C@H](C)[C@H]1C(=O)N(C(=O)CCC=C)[C@@H]1OC(C)=O | 84 | 93 | 66 | 16 | inactive | 14 | – | Active | Active | Active | Active
